# In patent US7452870B2, “Drug-eluting stents coated with P2Y12 receptor antagonist compound” (Inspire Pharmaceuticals, Inc., priority 2000, dated 2008):
# How the values were obtained:
# Type in all cases: cell-based
# [1] = system: washed platelet (ADP-induced aggregation; P2Y12 receptor); experiment: ADP-induced platelet aggregation, washed platelet preparation; details: Homo sapiens, inhibition of ADP-induced aggregation, washed platelets, average of at least two separate experiments
# Method: Blood was collected from healthy volunteers into syringes containing ⅙ final blood volume of anti-coagulant ACD (65 mM citric acid, 85 mM sodium citrate, 110 mM dextrose) for washed platelet (WP) preparation or into a syringe containing a final concentration of 10 units/mL heparin or 300 μM PPACK for whole blood (WB) assays. The blood collected for whole blood assays was maintained at room temperature and immediately tested as described below. […] These centrifugations and washes were repeated twice following by resuspension in the media described above containing 0.25 U apyrase/mL. Platelet aggregation was measured using the optical mode of a CHRONOLOG® aggregometer (Havertown, Pa.). Five hundred μl of platelet suspension containing 1 mg/mL Fibrinogen were warmed to 37° C. and stirred at 1000 rpm. Indicated concentrations of ADP were added to the sample and aggregation was monitored for 8 minutes. […] For whole blood aggregation, blood was diluted 1:1 with saline and then aggregation was performed in the same manner as described above using the impedance mode of the aggregometer. The potency of agonists and inhibitors of platelet aggregation was calculated from both, the rate of aggregation and the maximal extent of aggregation obtained for each determination by fitting the data to a four-parameter logistic equation using the […]® software package (GraphPad Corp. San Diego, Calif.).
# The ability of P2Y12 antagonists to inhibit platelet aggregation is presented in this application as the percent inhibition of the aggregation induced by a maximally effective concentration of ADP.
# Data presented are from the average of at least two separate experiments.
# P2Y1 = P2Y1 (Homo sapiens, UniProt P47900); experiment: Calcium mobilization assay, P2Y1; set-up: key: no response (NR); details: activation of P2Y1 receptor;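 note: test compound added first then a maximal dose of the cognate agonist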
# P2Y2 = P2Y2 (Homo sapiens, UniProt P41231); experiment: Calcium mobilization assay, P2Y2; set-up: key: no response (NR); details: activation of P2Y2 receptor;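 note: test compound added first then a maximal dose of the cognate agonist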
# P2Y4 = P2Y4 (Homo sapiens, UniProt P51582); experiment: Calcium mobilization assay, P2Y4; set-up: key: no response (NR); details: activation of P2Y4 receptor;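 note: test compound added first then a maximal dose of the cognate agonist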
# P2Y6 = P2Y6 (Homo sapiens, UniProt Q15077); experiment: Calcium mobilization assay, P2Y6; set-up: key: no response (NR); details: activation of P2Y6 receptor;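 note: test compound added first then a maximal dose of the cognate agonist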
# Chain of P2Y6 (Q15077 whole entry, species assumed): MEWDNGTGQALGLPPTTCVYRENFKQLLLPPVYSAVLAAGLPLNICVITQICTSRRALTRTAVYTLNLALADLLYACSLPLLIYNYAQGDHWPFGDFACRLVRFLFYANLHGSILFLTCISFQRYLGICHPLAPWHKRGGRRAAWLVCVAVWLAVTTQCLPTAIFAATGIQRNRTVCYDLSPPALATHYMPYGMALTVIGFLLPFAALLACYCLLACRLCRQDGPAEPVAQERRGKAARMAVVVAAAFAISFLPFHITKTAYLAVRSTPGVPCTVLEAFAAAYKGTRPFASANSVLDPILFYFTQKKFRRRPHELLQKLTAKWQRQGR
# Chain of P2Y4 (P51582 whole entry, species assumed): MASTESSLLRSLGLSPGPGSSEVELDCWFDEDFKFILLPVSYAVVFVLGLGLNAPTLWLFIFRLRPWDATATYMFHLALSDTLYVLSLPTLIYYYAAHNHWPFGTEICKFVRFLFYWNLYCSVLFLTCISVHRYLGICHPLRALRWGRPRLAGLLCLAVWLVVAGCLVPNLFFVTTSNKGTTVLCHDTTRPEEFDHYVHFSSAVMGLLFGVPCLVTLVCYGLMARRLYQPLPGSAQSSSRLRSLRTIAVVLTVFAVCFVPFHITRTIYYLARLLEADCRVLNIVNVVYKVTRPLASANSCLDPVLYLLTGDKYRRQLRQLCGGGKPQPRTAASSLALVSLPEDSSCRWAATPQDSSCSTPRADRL
# Chain of P2Y1 (P47900 whole entry): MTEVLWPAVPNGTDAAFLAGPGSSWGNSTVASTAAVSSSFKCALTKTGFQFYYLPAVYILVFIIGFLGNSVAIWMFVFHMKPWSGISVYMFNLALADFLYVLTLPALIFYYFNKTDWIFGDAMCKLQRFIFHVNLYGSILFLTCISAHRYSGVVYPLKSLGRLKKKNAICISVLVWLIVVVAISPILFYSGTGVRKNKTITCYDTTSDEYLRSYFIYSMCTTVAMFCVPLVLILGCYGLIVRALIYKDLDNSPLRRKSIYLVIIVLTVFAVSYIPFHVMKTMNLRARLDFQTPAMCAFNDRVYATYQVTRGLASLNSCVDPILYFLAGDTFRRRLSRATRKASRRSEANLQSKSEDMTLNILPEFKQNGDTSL
# Chain of P2Y2 (P41231 whole entry, species assumed): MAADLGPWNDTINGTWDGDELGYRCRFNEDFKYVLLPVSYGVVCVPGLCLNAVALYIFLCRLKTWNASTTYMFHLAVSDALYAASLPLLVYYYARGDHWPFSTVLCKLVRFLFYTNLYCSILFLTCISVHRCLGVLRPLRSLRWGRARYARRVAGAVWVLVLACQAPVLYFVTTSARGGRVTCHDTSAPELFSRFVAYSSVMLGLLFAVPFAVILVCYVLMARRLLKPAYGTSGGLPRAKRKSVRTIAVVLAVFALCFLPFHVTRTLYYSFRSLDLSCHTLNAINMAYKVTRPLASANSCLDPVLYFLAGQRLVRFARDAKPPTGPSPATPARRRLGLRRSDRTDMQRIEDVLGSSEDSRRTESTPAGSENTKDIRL
SMILES,IC50 [1] [nM],Calcium Mobilization P2Y1 (P2Y1),Calcium Mobilization P2Y2 (P2Y2),Calcium Mobilization P2Y4 (P2Y4),Calcium Mobilization P2Y6 (P2Y6)
"CCCCCCNC(=O)Nc1ncnc2c1ncn2[C@@H]1O[C@H](COP(=O)(O)O)C2OC(Cc3ccccc3)O[C@@H]21 (stereo partly shown) [Compound 23, 2′,3′-phenylacetaldehyde acetal-6-N-n-hexylurea AMP]",53 ± 16,NR,NR,NR,NR
"CCNC(=O)Nc1ncnc2c1ncn2[C@@H]1O[C@H](COP(=O)(O)OP(=O)(O)OC[C@H]2O[C@@H](n3cnc4c(NC(=O)NCC)ncnc43)[C@H]3OC(Cc4ccccc4)OC23)C2OC(Cc3ccccc3)OC21 (stereo partly shown) [Compound 46, P^1, P^1-di-(2′,3′-phenylacetaldehydeacetal-6-N-ethylureaadenosine 5′-) diphosphate]",53,NR,NR,NR,NR
"O=C(Nc1ccccc1)Nc1ncnc2c1ncn2[C@@H]1O[C@H](COP(=O)(O)O)C2OC(Cc3ccccc3)O[C@@H]21 (stereo partly shown) [Compound 22, 2′,3′-phenylacetaldehyde acetal-6-N-phenylurea adenosine 5′-monophosphate]",160 ± 27,NR,NR,NR,NR
"O=C(Nc1ccccc1)Nc1ncnc2c1ncn2[C@@H]1O[C@H](COP(=O)(O)O)C2OC(C#Cc3ccccc3)O[C@@H]21 (stereo partly shown) [Compound 31, 2′,3′-phenylpropargyl acetal-6-N-phenylurea AMP]",230,NR,NR,NR,NR
"CCCCCCNC(=O)Nc1ncnc2c1ncn2[C@@H]1O[C@H](COP(=O)(O)O)C2OC(C#Cc3ccccc3)O[C@@H]21 (stereo partly shown) [Compound 32, 2′,3′-phenylpropargyl acetal-6-N-n-hexylurea AMP]",210,NR,NR,NR,NR
"CCNC(=O)Nc1ncnc2c1ncn2[C@@H]1O[C@H](COP(=O)(O)OP(=O)(O)OC[C@H]2O[C@@H](n3cnc4c(NC(=O)NCC)ncnc43)[C@H]3OC(c4ccccc4)OC23)C2OC(c3ccccc3)OC21 (stereo partly shown) [Compound 47, P^1, P^4-Di-(2′,3′-phenylacetal-6-N-ethylureaadenosine 5′-) diphosphate]",55,NR,NR,NR,NR
"CCCCNC(=O)Nc1ncnc2c1ncn2[C@@H]1O[C@H](COP(=O)(O)O)C2OC(C#Cc3ccccc3)O[C@@H]21 (stereo partly shown) [Compound 33, 2′,3′-phenylpropargyl acetal-6-N-n-butylurea AMP]",67,NR,NR,NR,NR
"O=C(Nc1ccccc1)Nc1ncnc2c1ncn2[C@@H]1O[C@H](COP(=O)(O)O)C2OC(/C=C/c3ccccc3)O[C@@H]21 (stereo partly shown) [Compound 28, 2′,3′-cinnamyl acetal-6-N-phenylurea AMP]",209,NR,NR,NR,NR

# Now those with a lower IC50 [1], led by results:
IC50 [1] [nM],Calcium Mobilization P2Y1 (P2Y1),Calcium Mobilization P2Y2 (P2Y2),Calcium Mobilization P2Y4 (P2Y4),Calcium Mobilization P2Y6 (P2Y6),SMILES
41 ± 7,NR,NR,NR,NR,"CCNC(=O)Nc1ncnc2c1ncn2[C@@H]1O[C@H](COP(=O)(O)O)C2OC(Cc3ccccc3)O[C@@H]21 (stereo partly shown) [Compound 24, 2′,3′-phenylacetaldehyde acetal-6-N-ethylurea AMP]"
36 ± 9,NR,NR,NR,NR,"O=C(Nc1ncnc2c1ncn2[C@@H]1O[C@H](COP(=O)(O)O)C2OC(Cc3ccccc3)O[C@@H]21)NC1CCCC1 (stereo partly shown) [Compound 25, 2′,3′-phenylacetaldehyde acetal-6-N-cyclopentylurea AMP]"
36 ± 9,NR,NR,NR,NR,"CCCCCCNC(=O)Nc1ncnc2c1ncn2[C@@H]1O[C@H](COP(=O)(O)O)C2OC(/C=C/c3ccccc3)O[C@@H]21 (stereo partly shown) [Compound 26, 2′,3′-cinnamyl acetal-6-N-n-hexylurea AMP]"
25,NR,NR,NR,NR,"CCNC(=O)Nc1ncnc2c1ncn2[C@@H]1O[C@H](COP(=O)(O)O)C2OC(C#Cc3ccccc3)O[C@@H]21 (stereo partly shown) [Compound 35, 2′,3′-phenylpropargyl acetal-6-N-ethylurea AMP]"
13 ± 3,NR,NR,NR,NR,"CCNC(=O)Nc1ncnc2c1ncn2[C@@H]1O[C@H](COP(=O)(O)O)C2OC(c3ccccc3)O[C@@H]21 (stereo partly shown) [Compound 36, 2′,3′-benzaldehyde acetal-6-N-ethylurea AMP]"
12,NR,NR,NR,NR,"CCNC(=O)Nc1ncnc2c1ncn2[C@@H]1O[C@H](COP(=O)(O)O)C2O[C@H](c3ccccc3)O[C@@H]21 (stereo partly drawn) [Compound 42, 2′3′-(trans)phenyl acetal-6-N-ethylurea AMP]"
11,NR,NR,NR,NR,"CCNC(=O)Nc1ncnc2c1ncn2[C@@H]1O[C@H](COP(=O)(O)O)C2O[C@@H](c3ccccc3)O[C@@H]21 (stereo partly drawn) [Compound 43, 2′3′-(cis)phenyl acetal-6-N-ethylurea AMP]"
10,NR,NR,NR,NR,"CCNC(=O)Nc1ncnc2c1ncn2[C@@H]1O[C@H](COP(=O)(O)OP(=O)(O)OC[C@H]2O[C@@H](n3cnc4c(NC(=O)NCC)ncnc43)[C@H]3OC(C#Cc4ccccc4)OC23)C2OC(C#Cc3ccccc3)OC21 (stereo partly shown) [Compound 45, P^1, p2′-di-(2′,3′-phenylpropargylacetal-6-N-ethylureaadenosine 5′-) diphosphate]"
9 ± 3,NR,NR,NR,NR,"CCNC(=O)Nc1ncnc2c1ncn2[C@@H]1O[C@H](COP(=O)(O)O)C2OC(/C=C/c3ccccc3)O[C@@H]21 (stereo partly shown) [Compound 27, 2′,3′-cinnamyl acetal-6-N-ethylurea adenosine 5′-monophosphate]"
